According to patent US12522607B2, “Substituted pyrazolo[3,4-d]pyrimidines as wee-1 inhibitors” (WIGEN BIOMEDICINE TECHNOLOGY (SHANGHAI) CO., LTD., priority 2020, dated 2026):

Tests used:
Wee-1 kinase = target: T1, Wee-1 kinase (Homo sapiens, UniProt P30291); assay: Inhibitory activity against Wee-1 kinase (Lanthra Screen Wee-1 kinase kit, Tracer 178); assay type: binding; details: Wee-1 kinase 5 nM, Tracer 178 50 nM, 1 h room temperature
T1 construct: purchased Invitrogen
Summary of the method: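 LanthaScreen binding format: Wee-1 kinase (5 nM final) with Eu-anti-GST antibody (2 nM final) and kinase Tracer 178 (50 nM final), compounds serially diluted in DMSO. 1 h at room temperature before reading. IC50 relative to DMSO control.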

HT29 cells = assay: Antiproliferative activity against HT29 cells (Cell Titer-Lumi, ATP content); assay type: cell-based; details: Homo sapiens, HT-29, 72 after compound addition, read-out: HT-29 cells Anti-proliferative activity (IC50 for the inhibition against HT-29 cell growth)
Summary of the method: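 3000 cells per well, allowed to adhere overnight, then exposed to a gradient dilution of compound for 72 (units as printed). Cellular ATP read by luminescence (Cell Titer-Lumi) as a growth measure; IC50 for growth inhibition calculated.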

T1 sequence (P30291 whole entry): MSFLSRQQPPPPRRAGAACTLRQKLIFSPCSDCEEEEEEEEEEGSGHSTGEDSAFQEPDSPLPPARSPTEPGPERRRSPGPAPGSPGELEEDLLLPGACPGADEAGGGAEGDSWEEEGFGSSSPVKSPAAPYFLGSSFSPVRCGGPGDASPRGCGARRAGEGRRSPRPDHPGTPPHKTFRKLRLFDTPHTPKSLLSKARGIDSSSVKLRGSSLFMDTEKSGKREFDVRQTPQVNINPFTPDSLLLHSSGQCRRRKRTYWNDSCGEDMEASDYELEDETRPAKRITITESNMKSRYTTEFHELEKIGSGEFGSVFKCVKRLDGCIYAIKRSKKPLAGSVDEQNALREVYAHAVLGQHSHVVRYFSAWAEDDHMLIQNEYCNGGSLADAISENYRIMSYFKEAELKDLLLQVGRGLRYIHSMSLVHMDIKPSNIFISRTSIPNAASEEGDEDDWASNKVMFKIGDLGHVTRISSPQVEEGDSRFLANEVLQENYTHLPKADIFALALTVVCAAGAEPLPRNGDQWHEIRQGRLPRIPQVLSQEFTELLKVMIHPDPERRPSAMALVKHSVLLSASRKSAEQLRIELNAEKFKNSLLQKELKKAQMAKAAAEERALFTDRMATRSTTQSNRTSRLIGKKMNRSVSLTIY

SMILES | IC50 (Wee-1 kinase) [nM] | IC50 (HT29 cells) [nM]
C=CCn1c(=O)c2cnc(Nc3ccc(N4CC5(CN(C)C5)C4)c(C)c3)nc2n1-c1ccc(=O)n(C(C)C)n1 [Compound 158] | ≤ 30 | ≤ 1000
C=CCn1c(=O)c2cnc(Nc3ccc(N4CC5(CN(C)C5)C4)c(OC)c3)nc2n1-c1ccc(=O)n(C(C)C)n1 [Compound 159] | ≤ 30 | ≤ 1000
C=CCn1c(=O)c2cnc(Nc3ccc(N4CC5(CCNC5)C4)cc3)nc2n1-c1ccc(=O)n(C(C)C)n1 [Compound 160] | ≤ 30 | 1000 to 3000
C=CCn1c(=O)c2cnc(Nc3ccc(N4CC5(CCNC5)C4)c(C)c3)nc2n1-c1ccc(=O)n(C(C)C)n1 [Compound 161] | ≤ 30 | 1000 to 3000
C=CCn1c(=O)c2cnc(Nc3ccc(N4CC5(CCNC5)C4)c(OC)c3)nc2n1-c1ccc(=O)n(C(C)C)n1 [Compound 162] | ≤ 30 | ≤ 1000
C=CCn1c(=O)c2cnc(Nc3ccc(N4CC5(CCN(C)C5)C4)cc3)nc2n1-c1ccc(=O)n(C(C)C)n1 [Compound 163] | ≤ 30 | ≤ 1000
C=CCn1c(=O)c2cnc(Nc3ccc(N4CC5(CCN(C)C5)C4)c(C)c3)nc2n1-c1ccc(=O)n(C(C)C)n1 [Compound 164] | ≤ 30 | ≤ 1000
C=CCn1c(=O)c2cnc(Nc3ccc(N4CC5(CCN(C)C5)C4)c(OC)c3)nc2n1-c1ccc(=O)n(C(C)C)n1 [Compound 165] | ≤ 30 | ≤ 1000
C=CCn1c(=O)c2cnc(Nc3ccc(N4CC5(CCNCC5)C4)cc3)nc2n1-c1ccc(=O)n(C(C)C)n1 [Compound 166] | 30 to 100 | 1000 to 3000
C=CCn1c(=O)c2cnc(Nc3ccc(N4CC5(CCNCC5)C4)c(C)c3)nc2n1-c1ccc(=O)n(C(C)C)n1 [Compound 167] | 30 to 100 | 1000 to 3000
C=CCn1c(=O)c2cnc(Nc3ccc(N4CC5(CCNCC5)C4)c(OC)c3)nc2n1-c1ccc(=O)n(C(C)C)n1 [Compound 168] | 30 to 100 | 1000 to 3000
C=CCn1c(=O)c2cnc(Nc3ccc(N4CCC5(CNC5)C4)cc3)nc2n1-c1ccc(=O)n(C(C)C)n1 [Compound 169] | ≤ 30 | 1000 to 3000
C=CCn1c(=O)c2cnc(Nc3ccc(N4CCC5(CNC5)C4)c(C)c3)nc2n1-c1ccc(=O)n(C(C)C)n1 [Compound 170] | ≤ 30 | ≤ 1000
C=CCn1c(=O)c2cnc(Nc3ccc(N4CCC5(CNC5)C4)c(OC)c3)nc2n1-c1ccc(=O)n(C(C)C)n1 [Compound 171] | ≤ 30 | ≤ 1000
C=CCn1c(=O)c2cnc(Nc3ccc(N4CCC5(CN(C)C5)C4)cc3)nc2n1-c1ccc(=O)n(C(C)C)n1 [Compound 172] | ≤ 30 | ≤ 1000
C=CCn1c(=O)c2cnc(Nc3ccc(N4CCC5(CN(C)C5)C4)c(C)c3)nc2n1-c1ccc(=O)n(C(C)C)n1 [Compound 173] | ≤ 30 | ≤ 1000
C=CCn1c(=O)c2cnc(Nc3ccc(N4CCC5(CN(C)C5)C4)c(OC)c3)nc2n1-c1ccc(=O)n(C(C)C)n1 [Compound 174] | ≤ 30 | ≤ 1000
C=CCn1c(=O)c2cnc(Nc3ccc(N4CCC5(CC4)CNC5)cc3)nc2n1-c1ccc(=O)n(C(C)C)n1 [Compound 175] | ≤ 30 | 1000 to 3000
C=CCn1c(=O)c2cnc(Nc3ccc(N4CCC5(CC4)CNC5)c(C)c3)nc2n1-c1ccc(=O)n(C(C)C)n1 [Compound 176] | ≤ 30 | ≤ 1000
C=CCn1c(=O)c2cnc(Nc3ccc(N4CCC5(CC4)CNC5)c(OC)c3)nc2n1-c1ccc(=O)n(C(C)C)n1 [Compound 177] | ≤ 30 | ≤ 1000
C=CCn1c(=O)c2cnc(Nc3ccc(N4CCC5(CC4)CN(C)C5)cc3)nc2n1-c1ccc(=O)n(C(C)C)n1 [Compound 178] | ≤ 30 | ≤ 1000

SMILES | IC50 (Wee-1 kinase) [nM] | IC50 (HT29 cells) [nM]
C=CCn1c(=O)c2cnc(Nc3ccc(N4CCC5(CC4)CN(C)C5)c(C)c3)nc2n1-c1ccc(=O)n(C(C)C)n1 [Compound 179] | ≤ 30 | ≤ 1000
C=CCn1c(=O)c2cnc(Nc3ccc(N4CCC5(CC4)CN(C)C5)c(OC)c3)nc2n1-c1ccc(=O)n(C(C)C)n1 [Compound 180] | ≤ 30 | ≤ 1000
C=CCn1c(=O)c2cnc(Nc3ccc(N4CCC5(CCNCC5)CC4)cc3)nc2n1-c1ccc(=O)n(C(C)C)n1 [Compound 181] | ≤ 30 | 1000 to 3000
C=CCn1c(=O)c2cnc(Nc3ccc(N4CCC5(CCNCC5)CC4)c(C)c3)nc2n1-c1ccc(=O)n(C(C)C)n1 [Compound 182] | ≤ 30 | ≤ 1000
C=CCn1c(=O)c2cnc(Nc3ccc(N4CCC5(CCNCC5)CC4)c(OC)c3)nc2n1-c1ccc(=O)n(C(C)C)n1 [Compound 183] | ≤ 30 | ≤ 1000
C=CCn1c(=O)c2cnc(Nc3ccc(N4CCC5(CCN(C)CC5)CC4)cc3)nc2n1-c1ccc(=O)n(C(C)C)n1 [Compound 184] | ≤ 30 | ≤ 1000
C=CCn1c(=O)c2cnc(Nc3ccc(N4CCC5(CCN(C)CC5)CC4)c(C)c3)nc2n1-c1ccc(=O)n(C(C)C)n1 [Compound 185] | ≤ 30 | ≤ 1000
C=CCn1c(=O)c2cnc(Nc3ccc(N4CCC5(CCN(C)CC5)CC4)c(OC)c3)nc2n1-c1ccc(=O)n(C(C)C)n1 [Compound 186] | ≤ 30 | ≤ 1000
C=CCn1c(=O)c2cnc(Nc3ccc(N4CC5(CCN5C)C4)c(C)c3)nc2n1-c1ccc(=O)n(C(C)C)n1 [Compound 187] | ≤ 30 | ≤ 1000
C=CCn1c(=O)c2cnc(Nc3ccc(N4CC5(CCCN5C)C4)c(C)c3)nc2n1-c1ccc(=O)n(C(C)C)n1 [Compound 188] | ≤ 30 | ≤ 1000
C=CCn1c(=O)c2cnc(Nc3ccc(N4CC5(CCCCN5C)C4)c(C)c3)nc2n1-c1ccc(=O)n(C(C)C)n1 [Compound 189] | 30 to 100 | ≤ 1000
C=CCn1c(=O)c2cnc(Nc3ccc(C4CCNCC4)cc3)nc2n1-c1ccc(=O)n(C(C)C)n1 [Compound 190] | ≤ 30 | ≤ 1000
C=CCn1c(=O)c2cnc(Nc3ccc(C4CCN(C)CC4)cc3)nc2n1-c1ccc(=O)n(C(C)C)n1 [Compound 191] | ≤ 30 | ≤ 1000
C=CCn1c(=O)c2cnc(Nc3ccc(C4CCNCC4)c(C)c3)nc2n1-c1ccc(=O)n(C(C)C)n1 [Compound 192] | ≤ 30 | ≤ 1000
C=CCn1c(=O)c2cnc(Nc3ccc(C4CCN(C)CC4)c(C)c3)nc2n1-c1ccc(=O)n(C(C)C)n1 [Compound 193] | ≤ 30 | ≤ 1000
C=CCn1c(=O)c2cnc(Nc3ccc(C4CCNCC4)c(OC)c3)nc2n1-c1ccc(=O)n(C(C)C)n1 [Compound 194] | ≤ 30 | ≤ 1000
C=CCn1c(=O)c2cnc(Nc3ccc(C4CCN(C)CC4)c(OC)c3)nc2n1-c1ccc(=O)n(C(C)C)n1 [Compound 195] | ≤ 30 | ≤ 1000
C=CCn1c(=O)c2cnc(Nc3ccc(C4CCNCC4)c(C(F)(F)F)c3)nc2n1-c1ccc(=O)n(C(C)C)n1 [Compound 196] | ≤ 30 | ≤ 1000
C=CCn1c(=O)c2cnc(Nc3ccc(C4CCN(C)CC4)c(C(F)(F)F)c3)nc2n1-c1ccc(=O)n(C(C)C)n1 [Compound 197] | ≤ 30 | ≤ 1000
C=CCn1c(=O)c2cnc(Nc3ccc(C4CCNCC4)c(CC(F)(F)F)c3)nc2n1-c1ccc(=O)n(C(C)C)n1 [Compound 198] | ≤ 30 | ≤ 1000
